Columns and labels:
[1] = Binding affinity to 5'-GGCCCCCC-3' DNA hairpin assessed as change in fluorescence intensity at 1 uM after 45 mins by fluorescence quenching analysis relative to control
[2] = Binding affinity to 5'-GGGGCCCC-3' DNA hairpin assessed as change in fluorescence intensity at 1 uM after 45 mins by fluorescence quenching analysis relative to control
[3] = Binding affinity to 5'-GCCCCGGG-3' DNA hairpin assessed as change in fluorescence intensity at 1 uM after 45 mins by fluorescence quenching analysis relative to control
[4] = Binding affinity to 5'-GGGGGGCC-3' DNA hairpin assessed as change in fluorescence intensity at 1 uM after 45 mins by fluorescence quenching analysis relative to control
[5] = Binding affinity to 5'-CCCCCGCG-3' DNA hairpin assessed as change in fluorescence intensity at 1 uM after 45 mins by fluorescence quenching analysis relative to control
[6] = Binding affinity to 5'-GCGGCCCC-3' DNA hairpin assessed as change in fluorescence intensity at 1 uM after 45 mins by fluorescence quenching analysis relative to control
[7] = Binding affinity to 5'-GCGGGGCC-3' DNA hairpin assessed as change in fluorescence intensity at 1 uM after 45 mins by fluorescence quenching analysis relative to control
[8] = Binding affinity to 5'-CGCGGGGG-3' DNA hairpin assessed as change in fluorescence intensity at 1 uM after 45 mins by fluorescence quenching analysis relative to control
[9] = Binding affinity to 5'-GCGGGCCG-3' DNA hairpin assessed as change in fluorescence intensity at 1 uM after 45 mins by fluorescence quenching analysis relative to control
[10] = Binding affinity to 5'-CGGGCCCG-3' DNA hairpin assessed as change in fluorescence intensity at 1 uM after 45 mins by fluorescence quenching analysis relative to control
[11] = Binding affinity to 5'-CCCCGCCG-3' DNA hairpin assessed as change in fluorescence intensity at 1 uM after 45 mins by fluorescence quenching analysis relative to control
[12] = Binding affinity to 5'-CGCGGCCG-3' DNA hairpin assessed as change in fluorescence intensity at 1 uM after 45 mins by fluorescence quenching analysis relative to control
[13] = Binding affinity to 5'-CGGCGCGG-3' DNA hairpin assessed as change in fluorescence intensity at 1 uM after 45 mins by fluorescence quenching analysis relative to control
[14] = Binding affinity to 5'-CGGCGGCC-3' DNA hairpin assessed as change in fluorescence intensity at 1 uM after 45 mins by fluorescence quenching analysis relative to control
[15] = Binding affinity to 5'-GGGCGGGG-3' DNA hairpin assessed as change in fluorescence intensity at 1 uM after 45 mins by fluorescence quenching analysis relative to control
[16] = Binding affinity to 5'-GCCGGCCG-3' DNA hairpin assessed as change in fluorescence intensity at 1 uM after 45 mins by fluorescence quenching analysis relative to control
[17] = Binding affinity to 5'-CCGCGGGC-3' DNA hairpin assessed as change in fluorescence intensity at 1 uM after 45 mins by fluorescence quenching analysis relative to control
[18] = Binding affinity to 5'-CCCGCCCG-3' DNA hairpin assessed as change in fluorescence intensity at 1 uM after 45 mins by fluorescence quenching analysis relative to control
[19] = Binding affinity to 5'-CGCCCGGC-3' DNA hairpin assessed as change in fluorescence intensity at 1 uM after 45 mins by fluorescence quenching analysis relative to control
[20] = Binding affinity to 5'-CCCGCCCC-3' DNA hairpin assessed as change in fluorescence intensity at 1 uM after 45 mins by fluorescence quenching analysis relative to control
[21] = Binding affinity to 5'-CCGGCGGC-3' DNA hairpin assessed as change in fluorescence intensity at 1 uM after 45 mins by fluorescence quenching analysis relative to control
[22] = Binding affinity to 5'-CCGGCCCG-3' DNA hairpin assessed as change in fluorescence intensity at 1 uM after 45 mins by fluorescence quenching analysis relative to control
[23] = Binding affinity to 5'-GGCGCCGC-3' DNA hairpin assessed as change in fluorescence intensity at 1 uM after 45 mins by fluorescence quenching analysis relative to control
[24] = Binding affinity to 5'-CCGCGGGG-3' DNA hairpin assessed as change in fluorescence intensity at 1 uM after 45 mins by fluorescence quenching analysis relative to control
[25] = Binding affinity to 5'-CCGCCCGC-3' DNA hairpin assessed as change in fluorescence intensity at 1 uM after 45 mins by fluorescence quenching analysis relative to control
[26] = Binding affinity to 5'-GGCGCGCC-3' DNA hairpin assessed as change in fluorescence intensity at 1 uM after 45 mins by fluorescence quenching analysis relative to control
[27] = Binding affinity to 5'-CGGGGCGC-3' DNA hairpin assessed as change in fluorescence intensity at 1 uM after 45 mins by fluorescence quenching analysis relative to control
[28] = Binding affinity to 5'-GGGCGGCC-3' DNA hairpin assessed as change in fluorescence intensity at 1 uM after 45 mins by fluorescence quenching analysis relative to control
[29] = Binding affinity to 5'-CGCGCGGG-3' DNA hairpin assessed as change in fluorescence intensity at 1 uM after 45 mins by fluorescence quenching analysis relative to control
[30] = Binding affinity to 5'-GCGCCCGC-3' DNA hairpin assessed as change in fluorescence intensity at 1 uM after 45 mins by fluorescence quenching analysis relative to control
[31] = Binding affinity to 5'-CGGGCGGG-3' DNA hairpin assessed as change in fluorescence intensity at 1 uM after 45 mins by fluorescence quenching analysis relative to control
[32] = Binding affinity to 5'-CCGCGGCC-3' DNA hairpin assessed as change in fluorescence intensity at 1 uM after 45 mins by fluorescence quenching analysis relative to control
[33] = Binding affinity to 5'-GCCGGGCC-3' DNA hairpin assessed as change in fluorescence intensity at 1 uM after 45 mins by fluorescence quenching analysis relative to control
[34] = Binding affinity to 5'-GCGCGGGC-3' DNA hairpin assessed as change in fluorescence intensity at 1 uM after 45 mins by fluorescence quenching analysis relative to control
[35] = Binding affinity to 5'-CGCGGCGG-3' DNA hairpin assessed as change in fluorescence intensity at 1 uM after 45 mins by fluorescence quenching analysis relative to control
[36] = Binding affinity to 5'-GCCGCGGC-3' DNA hairpin assessed as change in fluorescence intensity at 1 uM after 45 mins by fluorescence quenching analysis relative to control

NCC1O[C@H](O[C@H]2[C@@H](O)[C@H](O[C@@H]3[C@@H](O)[C@H](N)C[C@H](N)[C@H]3O[C@H]3O[C@H](CN)[C@@H](O)[C@H](O)[C@H]3N)O[C@@H]2CSCCNC(=O)CCSCC(=O)Nc2ccc(-c3c4ccc(=O)cc-4oc4cc(O)ccc34)c(C(=O)O)c2)[C@H](N)[C@@H](O)[C@@H]1O (stereo partly specified)
Activity [1]: 15% | Activity [2]: 15% | Activity [3]: 28.8% | Activity [4]: 32.2% | Activity [5]: 35.4% | Activity [6]: 37.2% | Activity [7]: 40.4% | Activity [8]: 40.6% | Activity [9]: 40.9% | Activity [10]: 41.3% | Activity [11]: 41.4% | Activity [12]: 42% | Activity [13]: 43.2% | Activity [14]: 43.8% | Activity [15]: 45.3% | Activity [16]: 45.3% | Activity [17]: 45.7% | Activity [18]: 46.5% | Activity [19]: 46.6% | Activity [20]: 46.7% | Activity [21]: 47.4% | Activity [22]: 48% | Activity [23]: 48.4% | Activity [24]: 48.6% | Activity [25]: 48.7% | Activity [26]: 49% | Activity [27]: 49% | Activity [28]: 49.4% | Activity [29]: 49.9% | Activity [30]: 50.3% | Activity [31]: 50.6% | Activity [32]: 50.6% | Activity [33]: 51% | Activity [34]: 51.8% | Activity [35]: 52% | Activity [36]: 56.3%
